Assays:
[1] = molecular target: T1, human CB-2 receptor (Homo sapiens, UniProt P34972); experiment: Binding assay, cannabinoid CB2 receptor ([3H]-CP-55,940 displacement); conditions: read-out: CB2 binding percent inhibition; for inhibition at 0.2 µM: test concentration 0.2 μM (superscript a); for inhibition at 1 µM: test concentration 1 μM (superscript b)
T1 construct: expressed in transfected cells; host or cells: SK-N-MC cells, pcDNA3 CB-2 (human), semi-purified membranes
In short: (§1)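 Membranes from SK-N-MC cells stably expressing human CB-1 or CB-2 were incubated 90 min at 30° C with 0.2 nM [3H]-CP-55,940 in pH 7.5 Tris buffer with fatty-acid-free BSA; 10 uM WIN 55,212 defined non-specific binding. Filter-bound counts gave IC50 by linear regression, or percent inhibition at 0.2, 1 or 10 μM.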

[2] = molecular target: human CB1 receptor (Homo sapiens, UniProt P21554); experiment: Binding assay, cannabinoid CB1 receptor ([3H]-CP-55,940 displacement); design: expressed in transfected cells; host or cells: SK-N-MC cells, pcDNA3 CB-1 (human), semi-purified membranes; conditions: for inhibition at 0.2 µM: test concentration 0.2 μM (superscript a); for inhibition at 1 µM: test concentration 1 μM (superscript b)
In short: as §1

[3] = read-out: CB1 binding percent inhibition

T1 sequence (P34972 whole entry): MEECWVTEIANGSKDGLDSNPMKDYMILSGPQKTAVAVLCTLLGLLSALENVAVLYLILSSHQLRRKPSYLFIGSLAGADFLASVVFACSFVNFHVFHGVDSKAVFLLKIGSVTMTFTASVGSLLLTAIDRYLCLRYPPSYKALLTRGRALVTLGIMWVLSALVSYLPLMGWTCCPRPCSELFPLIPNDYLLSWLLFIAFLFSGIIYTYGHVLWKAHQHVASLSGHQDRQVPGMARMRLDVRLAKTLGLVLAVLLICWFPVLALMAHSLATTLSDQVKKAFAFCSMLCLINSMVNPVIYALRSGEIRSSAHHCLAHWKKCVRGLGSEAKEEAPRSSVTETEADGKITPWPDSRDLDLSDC
Sequence of human CB1 receptor (P21554 whole entry): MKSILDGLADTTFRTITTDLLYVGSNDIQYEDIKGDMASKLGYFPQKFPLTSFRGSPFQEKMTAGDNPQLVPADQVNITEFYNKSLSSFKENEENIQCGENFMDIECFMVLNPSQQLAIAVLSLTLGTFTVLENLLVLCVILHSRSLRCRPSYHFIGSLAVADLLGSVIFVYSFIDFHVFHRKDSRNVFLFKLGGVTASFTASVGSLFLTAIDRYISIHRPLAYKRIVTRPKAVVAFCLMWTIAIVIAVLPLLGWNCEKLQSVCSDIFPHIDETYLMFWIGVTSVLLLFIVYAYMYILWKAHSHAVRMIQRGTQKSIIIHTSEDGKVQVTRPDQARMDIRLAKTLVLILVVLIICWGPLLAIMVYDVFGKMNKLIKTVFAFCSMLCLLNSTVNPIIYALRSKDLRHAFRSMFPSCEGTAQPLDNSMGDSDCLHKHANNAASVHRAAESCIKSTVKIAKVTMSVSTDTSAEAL

Row | Structure (SMILES) | inhibition at 0.2 µM [1] [%] | inhibition at 0.2 µM [2, 3] [%] | IC50 [2] [nM] | further results
1 | C[C@H](NC(=O)c1c2c(nn1-c1ccc(Cl)cc1Cl)/C(=C/c1ccc(F)cc1)CSC2)C1CCCCC1 [Cpd 90, (7Z)-2-(2,4-dichloro-phenyl)-7-(4-fluoro-benzylidene)-2,4,6,7-tetrahydro-thiopyrano[4,3-c]pyrazole-3-carboxylic acid [(1S)-1-cyclohexyl-ethyl]amide] | 18 | 31 | – | –
2 | O=C(NN1CCCCC1)c1nn(-c2ccc(Cl)cc2)c2c1CSC/C2=C\c1ccc(F)cc1 [Cpd 93, (7Z)-1-(4-chloro-phenyl)-7-(4-fluoro-benzylidene)-1,4,6,7-tetrahydro-thiopyrano[4,3-c]pyrazole-3-carboxylic acid piperidin-1-ylamide] | 26 | – | 36 | –
3 | C[C@@H](NS(=O)(=O)/C=C/c1c2c(nn1Cc1ccccc1)CCSC2)c1ccccc1 [Cpd 2, (E)-2-(2-benzyl-2,4,6,7-tetrahydro-thiopyrano[4,3-c]pyrazol-3-yl)-ethenesulfonic acid [(1R)-1-phenyl-ethyl]-amide] | – | – | – | inhibition at 1 µM [1]: 0%; inhibition at 1 µM [2, 3]: 13%
4 | O=S1(=O)Cc2c(/C=C/S(=O)(=O)NN3CCCCC3)nn(-c3ccc(F)cc3F)c2C(Cc2cccc(F)c2)C1 (stereo not shown) [Cpd 45, (E)-2-[1-(2,4-difluoro-phenyl)-7-(3-fluoro-benzyl)-5,5-dioxo-4,5,6,7-tetrahydro-1H-5λ^6-thiopyrano[4,3-c]pyrazol-3-yl]-ethenesulfonic acid piperidin-1-ylamide] | 8 | 33 | – | –
5 | O=C(NN1CCCCC1)c1c2c(nn1-c1ccc(Cl)cc1Cl)/C(=C/c1ccc(F)cc1)CS(=O)(=O)C2 [Cpd 83, (7Z)-2-(2,4-dichloro-phenyl)-7-(4-fluoro-benzylidene)-5,5-dioxo-4,5,6,7-tetrahydro-2H-5λ^6-thiopyrano[4,3-c]pyrazole-3-carboxylic acid piperidin-1-ylamide] | 17 | – | 27 | –
6 | C[C@@H](NS(=O)(=O)/C=C/c1nn(Cc2ccccc2)c2c1CS(=O)(=O)CC2)c1ccccc1 [Cpd 9, (E)-2-(1-benzyl-5,5-dioxo-4,5,6,7-tetrahydro-1H-5λ^6-thiopyrano[4-3-c]pyrazol-3-yl)-ethenesulfonic acid [(1R)-1-phenyl-ethyl]-amide] | – | – | – | inhibition at 1 µM [1]: 6%; inhibition at 1 µM [2, 3]: 6%
7 | O=C(N[C@H]1c2ccccc2C[C@H]1O)c1nn(-c2ccc(Cl)cc2Cl)c2c1CS(=O)(=O)C/C2=C\c1ccc(F)cc1 [Cpd 70, (7Z)-1-(2,4-dichloro-phenyl)-7-(4-fluoro-benzylidene)-5,5-dioxo-4,5,6,7-tetrahydro-1H-5λ^6-thiopyrano[4,3-c]pyrazole-3-carboxylic acid [(1S,2R)-2-hydroxy-indan-1-yl]-amide] | 19 | – | 12 | –
8 | O=C(NN1CCCC1)c1nn(-c2ccc(Cl)cc2Cl)c2c1CSC/C2=C\c1ccc(F)cc1 [Cpd 56, (7Z)-1-(2,4-dichloro-phenyl)-7-(4-fluoro-benzylidene)-1,4,6,7-tetrahydro-thiopyrano[4,3-c]pyrazole-3-carboxylic acid pyrrolidin-1-ylamide] | 15 | – | 35 | –
9 | C[C@@H](NS(=O)(=O)/C=C/c1nn(Cc2ccccc2)c2c1CS(=O)(=O)CC2)C1CCCCC1 [Cpd 14, (E)-2-(1-benzyl-5,5-dioxo-4,5,6,7-tetrahydro-1H-5λ^6-thiopyrano[4,3-c]pyrazol-3-yl)-ethenesulfonic acid [(1R)-1-cyclohexyl-ethyl]-amide] | – | – | – | inhibition at 1 µM [1]: 0%; inhibition at 1 µM [2, 3]: 0%
10 | O=C(N[C@@H]1c2ccccc2C[C@@H]1O)c1nn(-c2ccc(F)cc2F)c2c1CS(=O)(=O)CC2Cc1cccc(F)c1 (stereo partly drawn) [Cpd 51, 1-(2,4-difluoro-phenyl)-7-(3-fluoro-benzyl)-5,5-dioxo-4,5,6,7-tetrahydro-1H-5λ^6-thiopyrano[4,3-c]pyrazole-3-carboxylic acid [(1R,2S)-2-hydroxy-indan-1-yl]-amide] | 9 | 35 | – | –
11 | O=C(NN1CCCCCC1)c1nn(-c2ccc(Cl)cc2Cl)c2c1CS(=O)(=O)C/C2=C\c1ccc(F)cc1 [Cpd 107, (7Z)-1-(2,4-dichloro-phenyl)-7-(4-fluoro-benzylidene)-5,5-dioxo-4,5,6,7-tetrahydro-1H-5λ^6-thiopyrano[4,3-c]pyrazole-3-carboxylic acid azepan-1-ylamide] | 23 | 92 | – | –
12 | O=C(NCc1ccccn1)c1nn(-c2ccc(Cl)cc2Cl)c2c1CS(=O)(=O)C/C2=C\c1ccc(F)cc1 [Cpd 73, (7Z)-1-(2,4-dichloro-phenyl)-7-(4-fluoro-benzylidene)-5,5-dioxo-4,5,6,7-tetrahydro-1H-5λ^6-thiopyrano[4,3-c]pyrazole-3-carboxylic acid (pyridin-2-ylmethyl)-amide] | 13 | 56 | – | –
13 | C[C@H](NC(=O)c1nn(-c2ccc(Cl)cc2Cl)c2c1CSC/C2=C\c1ccc(F)cc1)c1ccccc1 [Cpd 62, (7Z)-1-(2,4-dichloro-phenyl)-7-(4-fluoro-benzylidene)-1,4,6,7-tetrahydro-thiopyrano[4,3-c]pyrazole-3-carboxylic acid [(1S)-1-phenyl-ethyl]-amide] | 17 | – | 48 | –
14 | C[C@H](NS(=O)(=O)/C=C/c1c2c(nn1Cc1ccccc1)CCS(=O)(=O)C2)C1CCCCC1 [Cpd 17, (E)-2-(2-benzyl-5,5-dioxo-4,5,6,7-tetrahydro-2H-5λ^6-thiopyrano[4,3-c]pyrazol-3-yl)-ethenesulfonic acid [(1S)-1-cyclohexyl-ethyl]-amide] | – | – | – | inhibition at 1 µM [1]: 24%; inhibition at 1 µM [2, 3]: 0%
15 | O=C(NN1CCN(CCO)CC1)c1nn(-c2ccc(Cl)cc2Cl)c2c1CS(=O)(=O)C/C2=C\c1ccc(F)cc1 [Cpd 110, (7Z)-1-(2,4-dichloro-phenyl)-7-(4-fluoro-benzylidene)-5,5-dioxo-4,5,6,7-tetrahydro-1H-5λ^6-thiopyrano[4,3-c]pyrazole-3-carboxylic acid [4-(2-hydroxy-ethyl)-piperazin-1-yl]-amide] | 7 | 13 | – | –
16 | C[C@@H](NS(=O)(=O)/C=C/c1c2c(nn1Cc1ccccc1)CCS(=O)(=O)C2)C1CCCCC1 [Cpd 16, (E)-2-(2-benzyl-5,5-dioxo-4,5,6,7-tetrahydro-2H-5λ^6-thiopyrano[4,3-c]pyrazol-3-yl)-ethenesulfonic acid [(1R)-1-cyclohexyl-ethyl]-amide] | – | – | – | inhibition at 1 µM [1]: 0%; inhibition at 1 µM [2, 3]: 0%
17 | O=C(NN1CC2CCCC2C1)c1nn(-c2ccc(Cl)cc2)c2c1CS(=O)(=O)C/C2=C\c1ccc(F)cc1 (stereo not shown) [Cpd 97, (7Z)-1-(4-chloro-phenyl)-7-(4-fluoro-benzylidene)-5,5-dioxo-4,5,6,7-tetrahydro-1H-5λ^6-thiopyrano[4,3-c]pyrazole-3-carboxylic acid (hexahydro-cyclopenta[c]pyrrol-2-yl)-amide] | 8 | – | 68 | –
18 | O=C(NCc1ccccn1)c1nn(-c2ccc(Cl)cc2Cl)c2c1CSC/C2=C\c1ccc(F)cc1 [Cpd 72, (7Z)-1-(2,4-dichloro-phenyl)-7-(4-fluoro-benzylidene)-1,4,6,7-tetrahydro-thiopyrano[4,3-c]pyrazole-3-carboxylic acid (pyridin-2-ylmethyl)-amide] | 10 | 48 | – | –
19 | C[C@@H](NC(=O)c1nn(-c2ccc(Cl)cc2Cl)c2c1CS(=O)(=O)C/C2=C\c1ccc(Cl)o1)C1CCCCC1 [Cpd 118, (7Z)-7-(5-chloro-furan-2-ylmethylene)-1-(2,4-dichloro-phenyl)-5,5-dioxo-4,5,6,7-tetrahydro-1H-5λ^6-thiopyrano[4,3-c]pyrazole-3-carboxylic acid [(1R)-1-cyclohexyl-ethyl]-amide] | 11 | – | 8 | –
20 | O=C(c1nn(-c2ccc(Cl)cc2Cl)c2c1CSC/C2=C\c1ccc(F)cc1)N1CCCCC1 [Cpd 55, (7Z)-[1-(2,4-dichloro-phenyl)-7-(4-fluoro-benzylidene)-1,4,6,7-tetrahydro-thiopyrano[4,3-c]pyrazol-3-yl]-piperidin-1-yl-methanone] | 10 | 52 | – | –
21 | C[C@H](NC(=O)/C=C/c1nn(Cc2ccccc2)c2c1CSCC2)c1ccccc1 [Cpd 32, (2E)-3-(1-benzyl-1,4,6,7-tetrahydro-thiopyrano[4,3-c]pyrazol-3-yl)-N-[(1S)-1-phenyl-ethyl]-acrylamide] | – | – | – | inhibition at 10 µM ([1]; test concentration 10 μM (superscript c)): 47%; inhibition at 10 µM ([2]; test concentration 10 μM (superscript c), read-out: CB1 binding percent inhibition): 35%
22 | C[C@H](NC(=O)c1c2c(nn1-c1ccc(Cl)cc1Cl)/C(=C/c1ccc(F)cc1)CS(=O)(=O)C2)C1CCCCC1 [Cpd 85, (7Z)-2-(2,4-dichloro-phenyl)-7-(4-fluoro-benzylidene)-5,5-dioxo-4,5,6,7-tetrahydro-2H-5λ^6-thiopyrano[4,3-c]pyrazole-3-carboxylic acid [(1S)-1-cyclohexyl-ethyl]-amide] | 20 | – | 35 | –
23 | O=C(NN1CCCCC1)c1nn(-c2ccc(Cl)cc2Cl)c2c1CSC/C2=C\c1ccc(F)cc1 [Cpd 54, (7Z)-1-(2,4-dichloro-phenyl)-7-(4-fluoro-benzylidene)-1,4,6,7-tetrahydro-thiopyrano[4,3-c]pyrazole-3-carboxylic acid piperidin-1-ylamide] | 25 | – | 34 | –

— patent US7524964B2, “Tetrahydrothiopyrano pyrazole cannabinoid modulators” (Janssen Pharmaceutica NV, priority 2005, dated 2009)
